Laboratory results taken from ChEMBL document CHEMBL4261660, “Synthesis and biological evaluation of a trisaccharide repeating unit derivative of Streptococcus pneumoniae 19A capsular polysaccharide” (Bioorg Med Chem, 2018).

What was measured:
Oryctolagus cuniculus [1] = species: Oryctolagus cuniculus; test: Inhibition of binding of anti-19A rabbit polyclonal antibody to Streptococcus pneumoniae 19A capsular polysaccharide coated on to plates at 1 mg/ml after overnight incubation at 4 to 8 degC by competitive ELISA
[2] = Inhibition of binding of anti-19A rabbit polyclonal antibody to Streptococcus pneumoniae 19A capsular polysaccharide coated on to plates after overnight incubation at 4 to 8 degC by competitive ELISA; design: species or system Oryctolagus cuniculus
Oryctolagus cuniculus [3] = species: Oryctolagus cuniculus; test: Inhibition of anti-19F rabbit polyclonal antibody binding to Streptococcus pneumoniae 19F capsular polysaccharide coated on to plates at 1 mg/ml after overnight incubation ar 4 to 8 degC by competitive ELISA
[4] = Inhibition of anti-19F rabbit polyclonal antibody binding to Streptococcus pneumoniae 19F capsular polysaccharide coated on to plates after overnight incubation ar 4 to 8 degC by competitive ELISA; design: species or system Oryctolagus cuniculus

- inhibition (Oryctolagus cuniculus [1]): 41%
- EC50 [2]: 1.3 ×10⁻³ mg/ml
- inhibition (Oryctolagus cuniculus [3]): 32%
- EC50 [4]: 2.7 ×10⁻² mg/ml
Structure (SMILES): CC(=O)N[C@@H]1[C@H](O[C@H]2[C@H](O)[C@@H](O)[C@@H](O[C@@H]3[C@@H](O)[C@H](C)O[C@@H](OCCCN)[C@@H]3O)O[C@@H]2CO)O[C@H](CO)[C@@H](O)[C@@H]1O.Cl
